Data on one compound can be found in patent publication US9434822B2, “Block copolymer, micelle preparation, and anticancer agent containing the same as active ingredient” (Nippon Kayaku Kabushiki Kaisha, priority 2004, dated 2016).

The subject of one data set is female CDF1 mice. The experiment in a line: Observation of peripheral nerve damage to mice (stretch reflex). Format: in vivo, mouse. Particulars: 30 mg/kg in terms of paclitaxel, i.v. for 5 consecutive days, hind limb. The method, then: The micelle preparation of the present invention, or paclitaxel alone, was administered via a mouse caudal vein to female CDF1 mice for 5 consecutive days, and the stretch reflex of the mouse hind limb was observed as an indicator of the peripheral nerve damage caused by paclitaxel. Each drug was prepared in the same manner as in Test Example 2 (in vivo antitumor effect on Colon 26). The dose was 30 mg/kg in terms of paclitaxel.

The nature of data set [1]: Paclitaxel levels in mouse tumor. Format: in vivo. Conditions: female, CDF1, mouse, tumor (Colon 26), intravenous, 50 mg/kg i.v., Colon 26 tumor. The method, then:
(§1) Each drug was prepared according to the same method as in Test Example 2 (in vivo antitumor effect on Colon 26). A micelle preparation containing paclitaxel, or paclitaxel alone, each at a dose level of 50 mg/kg, was administered via a mouse caudal vein into female CDF1 mouse transplanted with mouse colon cancer Colon 26 in the back, and after a predetermined time, whole blood was collected through an armpit artery. 0.01 mL of plasma obtained by centrifugation was deproteinized (3 times) with 0.2 mL of water and 1 mL of acetonitrile and then subjected to liquid/liquid extraction by adding 2 mL of t-butyl methyl ether. The organic layer was recovered, evaporated into dryness, dissolved in 0.4 mL of dissolving liquid for HPLC, and measured for its paclitaxel concentration by HPLC. Separately, the tumor was homogenized with 0.5% acetic acid to prepare 1% tumor homogenate, and 0.1 mL of 1% tumor homogenate was deproteinized (3 times) with 0.1 mL of water and 1 mL of acetonitrile and subjected to liquid/liquid extraction by adding 2 mL of t-butyl methyl ether. The organic layer was concentrated and dissolved in 0.4 mL of dissolving liquid for HPLC and measured for its paclitaxel concentration by HPLC.

Data set [2] in a line: Paclitaxel levels in mouse plasma. Format: in vivo. Particulars: female, intravenous, 50 mg/kg i.v., Colon 26-bearing CDF1 mice. How it is done:
as §1

The test system of data set [3] is Mouse colon cancer Colon 26 cells. Briefly: In vivo antitumor effect on Colon 26. Conditions: i.v. 3 times at 4-day intervals, Day 11 after administration. The method, then:
Mouse colon cancer Colon 26 cells were transplanted subcutaneously in the back of female CDF1 mouse, and after the volume of the tumor reached about 100 mm^3, the micelle preparation of Example 4, or paclitaxel alone as the control drug, was administered via a mouse caudal vein into the mouse 3 times at 4-day intervals, to examine the effect thereof on advanced cancer. The micelle preparation had been diluted with 5% glucose solution to form a solution containing paclitaxel at a concentration of 3 mg/mL. Paclitaxel for use as the sole regimen was dissolved in ethanol and mixed with an equal volume of Cremophor (manufactured by Sigma) to prepare a solution containing paclitaxel at a concentration of 30 mg/mL, and the resulting preparation was diluted with physiological saline to 3 mg/mL just before administration. The antitumor effect of each drug was judged in percentage (T/C %) of the average tumor volume of the group which was given the drug on Day 11 after administration, relative to the average tumor volume of the group which was not given the drug. A lower numerical value is indicative of higher effect.

Turning to `CC(=O)O[C@H]1C(=O)[C@@]2(C)[C@H]([C@H](OC(=O)c3ccccc3)[C@]3(O)C[C@H](OC(=O)[C@H](O)[C@@H](NC(=O)c4ccccc4)c4ccccc4)C(C)=C1C3(C)C)[C@]1(OC(C)=O)CO[C@@H]1C[C@@H]2O` [Paclitaxel alone, paclitaxel], the “Mice with loss of stretch reflex” value in the data set on female CDF1 mice is recorded as 3/3; in the data set on female CDF1 mice (listed as paclitaxel alone) it was “recognized to lose stretch reflex in every mouse”. Also, the concentration at 0.083 h in data set [1] (0.083 hours) was determined as 7370 ng/mL; in data set [2] (0.083 hours), 59300 ng/mL. Also, the concentration at 0.5 h in data set [1] (0.5 hours) is 10000 ng/mL; in data set [2] (0.5 hours), 31900 ng/mL. In addition, the results for the concentration at 2 h in data set [1] (2 hours) and in data set [2] (2 hours) were 12500 ng/mL and 14800 ng/mL, respectively. The concentration at 6 h in data set [1] (6 hours) is 5790 ng/mL; in data set [2] (6 hours), 710 ng/mL. The compound also returned a concentration at 24 h in data set [1] (24 hours) of 1250 ng/mL. For the same compound, the “T/C % (average tumor volume relative to group not given the drug)” value in data set [3] (dose 50 mg/kg) is reported as 81.6%; in data set [3] (dose 100 mg/kg), 52.6%.
